# Data taken from ChEMBL document CHEMBL2057096, “Discovery of novel 1,2,4-thiadiazole derivatives as potent, orally active agonists of sphingosine 1-phosphate receptor subtype 1 (S1P(1))” (J Med Chem, 2012).
# Active and inactive are the calls of the source. The calls are words filed in the database; no cut-off is given here.
# Key:
# [1] = Ratio of drug level in brain to blood in C57BL/6 mouse at 2 mg/kg, ip after 4 hrs; format: ADME, organism-based; parameters: dose 2 mg/kg, route intraperitoneal
# Mus musculus [2] = assay: Decrease in lymphocyte count in mouse acute lymphopenia model at 1 mg/kg, po after 24 hrs by flow cytometry relative to base line; format: functional; parameters: scale not given: the % may be the effect or the level left
# Cytochrome P450 1A2 = target: T1, Cytochrome P450 1A2 (Homo sapiens, UniProt P05177); assay: Inhibition of CYP1A2; format: ADME
# T1 sequence (P05177 whole entry): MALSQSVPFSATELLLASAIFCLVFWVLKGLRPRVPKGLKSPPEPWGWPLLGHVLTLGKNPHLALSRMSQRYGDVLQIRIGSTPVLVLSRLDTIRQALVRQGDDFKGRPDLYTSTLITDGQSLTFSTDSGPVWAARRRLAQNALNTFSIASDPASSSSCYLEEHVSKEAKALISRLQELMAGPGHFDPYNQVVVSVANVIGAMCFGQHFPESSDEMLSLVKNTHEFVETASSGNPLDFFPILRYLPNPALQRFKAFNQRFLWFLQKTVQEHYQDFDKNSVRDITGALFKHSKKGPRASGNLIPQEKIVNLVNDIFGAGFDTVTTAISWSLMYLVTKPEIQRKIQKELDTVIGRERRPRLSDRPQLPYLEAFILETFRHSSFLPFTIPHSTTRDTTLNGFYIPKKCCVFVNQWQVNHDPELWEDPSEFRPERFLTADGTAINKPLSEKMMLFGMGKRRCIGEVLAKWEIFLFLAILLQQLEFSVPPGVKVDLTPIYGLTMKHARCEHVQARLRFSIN
# Cytochrome P450 2C9 = Cytochrome P450 2C9 (Homo sapiens, UniProt P11712); assay: Inhibition of CYP2C9; format: ADME
# [3] = Ratio of drug level in brain to blood in C57BL/6 mouse at 2 mg/kg, ip after 1 hr; format: ADME, organism-based; parameters: dose 2 mg/kg, route intraperitoneal
# Homo sapiens = organism: Homo sapiens; assay: Selectivity ratio of EC50 for S1P3 receptor to EC50 for S1P1 receptor
# [4] = Oral bioavailability in mouse; format: ADME, organism-based; conditions: in vivo
# [5] = Stability of the compound assessed as glutathione adduct formation; format: physicochemical
# Cytochrome P450 3A4 = Cytochrome P450 3A4 (Homo sapiens, UniProt P08684); assay: Inhibition of CYP3A4; format: ADME
# [6] = Half life in Sprague-Dawley rat at 1 mg/kg, iv and 2 mg/kg, po; format: ADME, organism-based; conditions: in vivo
# [7] = target: Sphingosine 1-phosphate receptor 3 (Homo sapiens, UniProt Q99500); assay: Agonist activity against S1P3 receptor by cell based FRET assay; format: functional
# [8] = Oral bioavailability in Sprague-Dawley rat at 2 mg/kg; format: ADME, organism-based; conditions: in vivo
# [9] = Half life in mouse; format: ADME, organism-based; conditions: in vivo
# [10] = Percentage unbound in human plasma; format: ADME, cell-free
# Mus musculus [11] = assay: Decrease in lymphocyte count in mouse acute lymphopenia model at 1 mg/kg, po after 4 hrs by flow cytometry relative to base line; format: functional; parameters: scale not given: the % may be the effect or the level left
# Cytochrome P450 2D6 = Cytochrome P450 2D6 (Homo sapiens, UniProt P10635); assay: Inhibition of CYP2D6; format: ADME
# [12] = target: Sphingosine 1-phosphate receptor 1 (Homo sapiens, UniProt P21453); assay: Agonist activity against S1P1 receptor by cell based FRET assay; format: functional
# Cytochrome P450 2C19 = Cytochrome P450 2C19 (Homo sapiens, UniProt P33261); assay: Inhibition of CYP2C19; format: ADME
# Mus musculus [13] = assay: Antiinflammatory activity in C57BL/6 mouse EAE model assessed as decrease in clinical symptoms at 1 mg/kg, po administered qd after 10 days post immunization; format: functional, organism-based; parameters: dose 1 mg/kg
# [14] = AUC (0 to 24 hrs) in mouse; format: ADME, organism-based; parameters: time < 24 hr; conditions: plasma
# [15] = Permeability of the compound; format: ADME; conditions: not told; read-out: permeability
# [16] = Solubility of the compound; format: physicochemical
# Rattus norvegicus [17] = organism: Rattus norvegicus; assay: Decrease in lymphocyte count in rat after 60 hrs; format: functional, organism-based
# Rattus norvegicus [18] = assay: Antiinflammatory activity in rat assessed as decrease in lymphocyte count at 1 mg/kg, po qd for 7 days measured after 3 days of last post dose relative to control; format: functional; parameters: scale not given: the % may be the effect or the level left
# Rattus norvegicus [19] = organism: Rattus norvegicus; assay: Decrease in lymphocyte count in rat; format: functional, organism-based
# Rattus norvegicus [20] = assay: Antiinflammatory activity in rat assessed as decrease in lymphocyte count at 1 mg/kg, po qd for 7 days relative to base line; format: functional; parameters: scale not given: the % may be the effect or the level left
# [21] = Percentage unbound in rat plasma; format: ADME, cell-free
# Cytochrome P450 2C9, sequence (P11712 whole entry): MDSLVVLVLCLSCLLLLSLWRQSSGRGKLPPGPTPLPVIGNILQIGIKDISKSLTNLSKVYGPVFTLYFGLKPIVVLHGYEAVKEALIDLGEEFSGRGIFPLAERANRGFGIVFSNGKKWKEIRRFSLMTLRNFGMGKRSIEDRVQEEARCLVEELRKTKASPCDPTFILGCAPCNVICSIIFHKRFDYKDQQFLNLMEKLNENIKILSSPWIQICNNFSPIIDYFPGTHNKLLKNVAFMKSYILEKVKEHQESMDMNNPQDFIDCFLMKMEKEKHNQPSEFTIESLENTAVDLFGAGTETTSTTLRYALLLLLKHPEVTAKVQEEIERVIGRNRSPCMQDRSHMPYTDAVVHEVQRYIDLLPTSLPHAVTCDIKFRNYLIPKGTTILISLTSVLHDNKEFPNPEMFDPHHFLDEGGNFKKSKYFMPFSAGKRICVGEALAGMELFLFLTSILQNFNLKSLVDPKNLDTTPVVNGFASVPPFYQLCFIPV
# Cytochrome P450 2C19, sequence (P33261 whole entry): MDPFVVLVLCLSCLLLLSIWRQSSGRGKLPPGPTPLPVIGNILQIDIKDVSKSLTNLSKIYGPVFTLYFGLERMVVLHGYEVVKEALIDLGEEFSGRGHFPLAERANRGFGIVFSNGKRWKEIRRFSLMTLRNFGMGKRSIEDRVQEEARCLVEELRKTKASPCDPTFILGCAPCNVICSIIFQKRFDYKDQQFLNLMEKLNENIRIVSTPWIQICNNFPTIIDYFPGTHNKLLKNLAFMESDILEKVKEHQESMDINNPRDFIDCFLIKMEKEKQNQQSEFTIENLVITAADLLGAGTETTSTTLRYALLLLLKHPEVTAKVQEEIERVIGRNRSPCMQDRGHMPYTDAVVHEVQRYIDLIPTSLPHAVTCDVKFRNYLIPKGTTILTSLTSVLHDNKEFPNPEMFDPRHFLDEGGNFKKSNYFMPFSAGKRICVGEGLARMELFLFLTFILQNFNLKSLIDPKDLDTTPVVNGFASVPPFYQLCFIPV
# Cytochrome P450 3A4, sequence (P08684 whole entry): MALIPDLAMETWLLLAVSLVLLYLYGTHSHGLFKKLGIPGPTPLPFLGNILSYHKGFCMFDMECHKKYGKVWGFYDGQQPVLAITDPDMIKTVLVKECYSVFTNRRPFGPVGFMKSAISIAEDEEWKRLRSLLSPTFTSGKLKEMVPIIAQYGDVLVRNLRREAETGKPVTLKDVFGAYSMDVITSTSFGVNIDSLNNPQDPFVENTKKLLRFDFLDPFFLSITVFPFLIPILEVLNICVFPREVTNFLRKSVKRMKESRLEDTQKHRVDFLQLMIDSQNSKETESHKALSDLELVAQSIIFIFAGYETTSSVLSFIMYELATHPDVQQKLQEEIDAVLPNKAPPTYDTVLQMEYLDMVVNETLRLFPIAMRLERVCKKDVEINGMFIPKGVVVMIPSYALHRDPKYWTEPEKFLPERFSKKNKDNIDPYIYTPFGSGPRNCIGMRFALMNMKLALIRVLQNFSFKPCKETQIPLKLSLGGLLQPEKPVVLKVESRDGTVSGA
# Cytochrome P450 2D6, sequence (P10635 whole entry): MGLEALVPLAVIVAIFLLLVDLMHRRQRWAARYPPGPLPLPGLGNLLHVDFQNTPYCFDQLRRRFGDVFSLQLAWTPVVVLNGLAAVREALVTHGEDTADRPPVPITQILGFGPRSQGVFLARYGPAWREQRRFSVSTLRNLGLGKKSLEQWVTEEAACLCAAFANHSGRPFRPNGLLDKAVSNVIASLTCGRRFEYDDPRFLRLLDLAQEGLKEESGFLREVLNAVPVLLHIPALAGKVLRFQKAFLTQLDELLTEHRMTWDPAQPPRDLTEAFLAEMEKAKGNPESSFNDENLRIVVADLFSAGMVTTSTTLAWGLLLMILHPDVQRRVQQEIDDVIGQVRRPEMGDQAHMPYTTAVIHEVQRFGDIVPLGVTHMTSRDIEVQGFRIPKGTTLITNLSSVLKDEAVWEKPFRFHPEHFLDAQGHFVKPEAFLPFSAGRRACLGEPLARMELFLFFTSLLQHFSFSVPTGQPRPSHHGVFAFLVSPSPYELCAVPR
# Sphingosine 1-phosphate receptor 3, sequence (Q99500 whole entry): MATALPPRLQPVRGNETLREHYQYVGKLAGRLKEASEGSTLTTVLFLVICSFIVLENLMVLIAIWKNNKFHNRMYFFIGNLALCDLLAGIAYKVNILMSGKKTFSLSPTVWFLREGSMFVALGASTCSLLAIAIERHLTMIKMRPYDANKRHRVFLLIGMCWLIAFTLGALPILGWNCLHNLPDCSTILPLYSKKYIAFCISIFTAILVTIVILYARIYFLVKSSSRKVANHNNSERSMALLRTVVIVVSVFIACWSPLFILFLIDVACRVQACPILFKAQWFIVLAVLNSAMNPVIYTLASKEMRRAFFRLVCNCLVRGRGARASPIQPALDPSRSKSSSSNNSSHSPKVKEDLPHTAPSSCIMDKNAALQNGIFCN
# Sphingosine 1-phosphate receptor 1, sequence (P21453 whole entry): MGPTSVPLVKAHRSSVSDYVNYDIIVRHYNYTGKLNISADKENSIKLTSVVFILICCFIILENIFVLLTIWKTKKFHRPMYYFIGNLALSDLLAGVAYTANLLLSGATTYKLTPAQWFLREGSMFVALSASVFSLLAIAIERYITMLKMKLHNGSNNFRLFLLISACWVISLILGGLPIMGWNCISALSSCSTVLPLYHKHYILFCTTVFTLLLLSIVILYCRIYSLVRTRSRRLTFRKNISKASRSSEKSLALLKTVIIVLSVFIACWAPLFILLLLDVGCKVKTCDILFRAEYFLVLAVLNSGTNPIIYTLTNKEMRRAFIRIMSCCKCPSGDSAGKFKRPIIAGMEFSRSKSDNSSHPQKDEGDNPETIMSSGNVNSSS
Kp at 4 h [1],IC50 (Cytochrome P450 1A2),IC50 (Cytochrome P450 2C9),Kp at 1 h [3],Ratio EC50 (Homo sapiens),bioavailability [4],Stability [5],IC50 (Cytochrome P450 3A4),half-life [6],EC50 [7],bioavailability [8],half-life [9],fraction unbound [10],IC50 (Cytochrome P450 2D6),EC50 [12],IC50 (Cytochrome P450 2C19),Papp [15],solubility [16],SMILES,Activity (Mus musculus [2]),Activity (Mus musculus [11]),also measured
1.48,> 10 µM,> 10 µM,0.52,> 1000,40%,Stable,> 10 µM,27.7 h,> 3.16 µM,70%,15.6 h,0.0045,> 10 µM,0.000158 µM,> 10 µM,,,CCc1c(CCN2CCC(C(=O)O)CC2)cccc1-c1nsc(-c2ccc(OC(C)C)c(Cl)c2)n1,40%,16%,
0.19,> 10 µM,> 10 µM,0.21,,100%,,> 10 µM,,> 10 µM,,3.8 h,0.0051,> 10 µM,0.00126 µM,,23 ×10⁻⁶ cm/s,256 µg/mL,CCc1c(CCCC(=O)O)cccc1-c1nnc(-c2ccc(OC(C)C)c(C#N)c2)s1,43.6%,37.9%,Activity (Mus musculus [13]): inactive; AUC(0-t) at 24 h [14]: 5940 ng·h/mL
0.65,> 10 µM,> 10 µM,0.23,> 1000,45%,Stable,> 10 µM,6.2 h,> 3.16 µM,50%,5.3 h,0.0064,> 10 µM,0.000794 µM,> 10 µM,,,CCc1c(CCN2CCC(C(=O)O)CC2)cccc1-c1nsc(-c2ccc(CC(C)C)c(C#N)c2)n1,72%,23%,Activity (Rattus norvegicus [17]): inactive; Activity (Rattus norvegicus [18]): 70%; Activity (Rattus norvegicus [19]): Dose-dependent effect; IC50 (Rattus norvegicus [19]): 0.012 µg/mL; Activity (Rattus norvegicus [20]): 20%
0.68,> 10 µM,> 10 µM,0.53,,,,> 10 µM,,> 10 µM,,,,> 10 µM,0.0002 µM,> 10 µM,34.5 ×10⁻⁶ cm/s,46 µg/mL,CCc1c(CCCC(=O)O)cccc1-c1noc(-c2ccc(OC(C)C)c(C#N)c2)n1,,,fraction unbound [21]: 0.0004
